Results published in ChEMBL document CHEMBL4270599, “Synthesis of a 3'-C-ethynyl-β-d-ribofuranose purine nucleoside library: Discovery of C7-deazapurine analogs as potent antiproliferative nucleosides” (Eur J Med Chem, 2018).

Experiments:
Assay type in all cases: functional
SR = test: Cytotoxicity against human SR cells after 48 hrs by SRB assay; conditions: for GI50: read-out: GI50
EKVX = test: Cytotoxicity against human EKVX cells after 48 hrs by SRB assay; conditions: for TGI: read-out: TGI
NCI-H226 = test: Cytotoxicity against human NCI-H226 cells after 48 hrs by SRB assay; conditions: NCI-H226, 48 h; for GI50: read-out: GI50; for CC50: read-out: LC50 (the source's name)
COLO 205 [1] = test: Cytotoxicity against human COLO205 cells after 48 hrs by SRB assay; conditions: COLO 205, 48 h; for GI50: read-out: GI50; for CC50: read-out: LC50 (the source's name); for TGI: read-out: TGI
OVCAR-3 = test: Cytotoxicity against human OVCAR3 cells after 48 hrs by SRB assay; conditions: OVCAR-3, 48 h; for GI50: read-out: GI50
NCI/ADR-RES = test: Cytotoxicity against human NCI-ADR-RES cells after 48 hrs by SRB assay; conditions: for GI50: read-out: GI50; for CC50: read-out: pLC50 (the source's name) (converted)
HL-60(TB) = test: Growth inhibition of human HL-60(TB) cells assessed as cell growth at 10^-8 M incubated for 48 hrs by sulforhodamine B assay relative to control; conditions: HL-60, 48 h, read-out: Activity
NCI-H322M = test: Growth inhibition of human NCI-H322M cells assessed as cell growth at 10^-8 M incubated for 48 hrs by sulforhodamine B assay relative to control; conditions: read-out: Activity
NCI-H522 = test: Growth inhibition of human NCI-H522 cells assessed as cell growth at 10^-8 M incubated for 48 hrs by sulforhodamine B assay relative to control; conditions: NCI-H522, 48 h, read-out: Activity
COLO 205 [2] = test: Growth inhibition of human COLO205 cells assessed as cell growth at 10^-8 M incubated for 48 hrs by sulforhodamine B assay relative to control; conditions: COLO 205, 48 h, read-out: Activity
SF-268 = test: Growth inhibition of human SF268 cells assessed as cell growth at 10^-8 M incubated for 48 hrs by sulforhodamine B assay relative to control; conditions: SF-268, 48 h, read-out: Activity
TK-10 = test: Growth inhibition of human TK10 cells assessed as cell growth at 10^-8 M incubated for 48 hrs by sulforhodamine B assay relative to control; conditions: TK-10, 48 h, read-out: Activity
MDA-MB-468 = test: Growth inhibition of human MDA-MB-468 cells assessed as cell growth at 10^-8 M incubated for 48 hrs by sulforhodamine B assay relative to control; conditions: MDA-MB-468, 48 h, read-out: Activity
COLO 205 [3] = test: Growth inhibition of human COLO205 cells assessed as cell growth at 10^-7 M incubated for 48 hrs by sulforhodamine B assay relative to control; conditions: COLO 205, 48 h, read-out: Activity
KM12 [4] = test: Growth inhibition of human KM12 cells assessed as cell growth at 10^-7 M incubated for 48 hrs by sulforhodamine B assay relative to control; conditions: KM12, 48 h, read-out: Activity
MDA-MB-435 = test: Growth inhibition of human MDA-MB-435 cells assessed as cell growth at 10^-7 M incubated for 48 hrs by sulforhodamine B assay relative to control; conditions: MDA-MB-435, 48 h, read-out: Activity
SK-MEL-28 = test: Growth inhibition of human SK-MEL-28 cells assessed as cell growth at 10^-7 M incubated for 48 hrs by sulforhodamine B assay relative to control; conditions: SK-MEL-28, 48 h, read-out: Activity
OVCAR-5 = test: Growth inhibition of human OVCAR5 cells assessed as cell growth at 10^-7 M incubated for 48 hrs by sulforhodamine B assay relative to control; conditions: OVCAR-5, 48 h, read-out: Activity
OVCAR-8 = test: Growth inhibition of human OVCAR8 cells assessed as cell growth at 10^-7 M incubated for 48 hrs by sulforhodamine B assay relative to control; conditions: OVCAR-8, 48 h, read-out: Activity
HCC 2998 = test: Growth inhibition of human HCC2998 cells assessed as cell growth at 10^-6 M incubated for 48 hrs by sulforhodamine B assay relative to control; conditions: HCC 2998, 48 h, read-out: Activity
SNB-19 = test: Growth inhibition of human SNB19 cells assessed as cell growth at 10^-6 M incubated for 48 hrs by sulforhodamine B assay relative to control; conditions: SNB-19, 48 h, read-out: Activity
786-0 = test: Growth inhibition of human 786-0 cells assessed as cell growth at 10^-6 M incubated for 48 hrs by sulforhodamine B assay relative to control; conditions: 786-0, 48 h, read-out: Activity
PC-3 = test: Growth inhibition of human PC3 cells assessed as cell growth at 10^-6 M incubated for 48 hrs by sulforhodamine B assay relative to control; conditions: PC-3, 48 h, read-out: Activity
MDA-MB-231 [5] = test: Growth inhibition of human MDA-MB-231 cells assessed as cell growth at 10^-6 M incubated for 48 hrs by sulforhodamine B assay relative to control; conditions: MDA-MB-231, 48 h, read-out: Activity
MDA-MB-231 [6] = test: Growth inhibition of human MDA-MB-231 cells assessed as cell growth at 10^-5 M incubated for 48 hrs by sulforhodamine B assay relative to control; conditions: MDA-MB-231, 48 h, read-out: Activity
CCRF-CEM = test: Growth inhibition of human CCRF-CEM cells assessed as cell growth at 10^-4 M incubated for 48 hrs by sulforhodamine B assay relative to control; conditions: read-out: Activity
HCT-15 = test: Growth inhibition of human HCT15 cells assessed as cell growth at 10^-4 M incubated for 48 hrs by sulforhodamine B assay relative to control; conditions: HCT-15, 48 h, read-out: Activity
KM12 [7] = test: Growth inhibition of human KM12 cells assessed as cell growth at 10^-4 M incubated for 48 hrs by sulforhodamine B assay relative to control; conditions: KM12, 48 h, read-out: Activity
UACC-62 = test: Growth inhibition of human UACC62 cells assessed as cell growth at 10^-7 M incubated for 48 hrs by sulforhodamine B assay relative to control; conditions: UACC-62, 48 h, read-out: Activity
T47D = test: Growth inhibition of human T47D cells assessed as cell growth at 10^-7 M incubated for 48 hrs by sulforhodamine B assay relative to control; conditions: read-out: Activity
[8] = read-out: LC50 (the source's name)
[9] = read-out: pLC50 (the source's name) (converted)

C#C[C@@]1(O)[C@@H](CO)O[C@@H](n2cc(I)c3c(N)ncnc32)[C@@H]1O
GI50 (SR): 182 to 378 nM
CC50 (SR; [8]): > 100000 nM
TGI (SR; read-out: TGI): 8150 to 100000 nM
GI50 (EKVX; read-out: GI50): 395 to 421 nM
TGI (EKVX): 4040 to 7140 nM
CC50 (EKVX; [9]): > 100000 nM
GI50 (NCI-H226): 1350 to 2180 nM
CC50 (NCI-H226): > 100000 nM
TGI (NCI-H226; read-out: TGI): > 100000 nM
TGI (NCI-H226; read-out: pTGI (converted)): > 100000 nM
GI50 (COLO 205 [1]): 44.8 to 170 nM
CC50 (COLO 205 [1]): 4780 to 6740 nM
TGI (COLO 205 [1]): 393 to 1270 nM
GI50 (OVCAR-3): 321 to 427 nM
CC50 (OVCAR-3; [8]): > 100000 nM
GI50 (NCI/ADR-RES): 63.7 to 83.9 nM
TGI (NCI/ADR-RES; read-out: TGI): 4190 to 14900 nM
CC50 (NCI/ADR-RES): > 100000 nM
growth at 0.01 µM (HL-60(TB)): 83%
growth at 0.01 µM (NCI-H322M): 75 to 86%
growth at 0.01 µM (NCI-H522): 83 to 85%
growth at 0.01 µM (COLO 205 [2]): 79 to 98%
growth at 0.01 µM (SF-268): 92%
growth at 0.01 µM (TK-10): 85 to 94%
growth at 0.01 µM (MDA-MB-468): 81 to 93%
growth at 0.1 µM (COLO 205 [3]): 35 to 63%
growth at 0.1 µM (KM12 [4]): 49 to 50%
growth at 0.1 µM (MDA-MB-435): 66 to 73%
growth at 0.1 µM (SK-MEL-28): 86 to 88%
growth at 0.1 µM (OVCAR-5): 67 to 75%
growth at 0.1 µM (OVCAR-8): 32 to 35%
growth at 1 µM (HCC 2998): 11 to 16%
growth at 1 µM (SNB-19): 8 to 26%
growth at 1 µM (786-0): 13 to 23%
growth at 1 µM (PC-3): 13 to 14%
growth at 1 µM (MDA-MB-231 [5]): 17 to 27%
growth at 10 µM (MDA-MB-231 [6]): 10 to 12%
growth at 100 µM (CCRF-CEM): 2 to 8%
growth at 100 µM (HCT-15): 1%
growth at 100 µM (KM12 [7]): 3 to 9%
growth at 0.1 µM (UACC-62): 81 to 84%

C#C[C@@]1(O)[C@@H](CO)O[C@@H](n2cc(Cl)c3c(N)ncnc32)[C@@H]1O
GI50 (SR): 61.1 to 87.3 nM
TGI (SR; read-out: TGI): > 100000 nM
CC50 (SR; [9]): > 100000 nM
TGI (SR; read-out: pTGI): > 100000 nM
GI50 (EKVX; read-out: GI50): 260 to 262 nM
CC50 (EKVX; [8]): > 100000 nM
TGI (EKVX): 2410 to 2460 nM
GI50 (EKVX; read-out: pGI50 (converted)): 263 nM
GI50 (NCI-H226): 308 to 837 nM
CC50 (NCI-H226): > 100000 nM
TGI (NCI-H226; read-out: TGI): 901 to 100000 nM
GI50 (COLO 205 [1]): 71.2 to 157 nM
CC50 (COLO 205 [1]): 10000 to 40400 nM
TGI (COLO 205 [1]): 276 to 521 nM
GI50 (OVCAR-3): 228 to 237 nM
TGI (OVCAR-3; read-out: TGI): 1600 to 2010 nM
CC50 (OVCAR-3; [9]): > 100000 nM
GI50 (NCI/ADR-RES): 50.6 to 54.6 nM
TGI (NCI/ADR-RES; read-out: TGI): 777 nM
CC50 (NCI/ADR-RES): > 100000 nM
TGI (NCI/ADR-RES; read-out: pTGI (converted)): 776 nM
growth at 0.01 µM (HL-60(TB)): 83 to 85%
growth at 0.01 µM (NCI-H322M): 93 to 100%
growth at 0.01 µM (NCI-H522): 82 to 88%
growth at 0.01 µM (COLO 205 [2]): 93 to 96%
growth at 0.01 µM (SF-268): 82 to 88%
growth at 0.01 µM (TK-10): 96 to 105%
growth at 0.01 µM (MDA-MB-468): 97 to 103%
growth at 0.1 µM (COLO 205 [3]): 43 to 69%
growth at 0.1 µM (KM12 [4]): 55 to 60%
growth at 0.1 µM (MDA-MB-435): 60 to 69%
growth at 0.1 µM (SK-MEL-28): 87 to 91%
growth at 0.1 µM (OVCAR-5): 72 to 102%
growth at 0.1 µM (OVCAR-8): 35 to 39%
growth at 0.1 µM (T47D): 31 to 50%
growth at 1 µM (786-0): 9 to 11%
growth at 1 µM (PC-3): 9 to 11%
growth at 1 µM (MDA-MB-231 [5]): -4%
growth at 100 µM (CCRF-CEM): 2 to 5%
growth at 100 µM (HCT-15): 1%
growth at 100 µM (KM12 [7]): 2 to 6%
growth at 0.1 µM (UACC-62): 75 to 81%
